Data from patent US20240148745A1, “COMPOUNDS FOR USE IN PROGRESSIVE MULTIPLE SCLEROSIS” (FONDAZIONE CENTRO SAN RAFFAELE, priority 2021, published 2024).
Where a name gives a salt, the structure may show the parent alone.

System: mouse cortical neurons
Assay: Morphological integrity evaluation, NMDA 8 μM (MAP2 neurite length and branching)
Type: cell-based
Conditions: 3 h pre-treatment, NMDA 8 μM 24 h; Z>0.5 criteria
Method: Apart of viability/metabolic readout in NMDA-mediated neurotoxicity assay, a neuronal structural integrity was evaluated by MAP2 staining. Mouse cortical neurons (14 DIV) cultured in MW96 plates were fixed with 4% paraformaldehyde (PFA). Fixed cells were incubated with blocking solution (PBS 1×, donkey serum 5%, Triton 0.1%) for 1-hour, primary antibody (rabbit α-MAP2, 1:250, Millipore) was applied in the same solution overnight at +4° C. […] Nuclei were stained with 4′-6-diamidino-2-phenylindole (DAPI, Roche). Microscopy was performed using ArrayScan™XTI (ThermoFisher) imaging platform. 15 images per well were acquired and analyzed by CellProfiler. Total neurite length and the total number of non-trunk branches were analyzed. Total neurite length and the total number of branching were evaluated from 15 images/well, each compound or control was tested in triplicates. The total neurite length and total number of branches were converted to a standardized Z-score using formula: Xij=((Xij−μ)/σ), where xij is the raw measurement of the compound located in well (i, j), and μ and σ are, respectively, the mean and the standard deviation of all measurements of the plate.^31
The morphological integrity of mouse cortical neurons upon chronic 24 h NMDA (8 μM) exposure with compounds pre-treatment (3 h) in preventive regimen was evaluated. Control (basal), DMSO, N-acetylcysteine (NAC) served as positive controls, while staurosporine and NMDA were negative controls.

| SMILES | preservation of neurite length and network integrity (branching) |
| --- | --- |
| CC[C@H](NC(=O)c1cc(-c2ccccc2)nc2ccccc12)c1ccccc1 [AZD-7624] | preserved both neurite length and the network integrity (branching) |
| CNC(=O)c1ccc(-c2cnc3ncc(Cc4ccc5ncccc5c4)n3n2)cc1F [Capmatinib] | preserved both neurite length and the network integrity (branching) |
| Cc1cc(F)c(C(=O)Nc2cccc(-c3nncn3C(C)C)n2)cc1-n1cnc(C2CC2)c1 [GS-4997] | preserved both neurite length and the network integrity (branching) |
| CN=C(NS(=O)(=O)c1ccc(Cl)cc1)N1C[C@H](c2ccccc2)C(c2ccc(Cl)cc2)=N1 [Ibipinabant] | preserved both neurite length and the network integrity (branching) |
| CC(=O)N(C)c1cccc(-c2ccnc3c(C(=O)c4cccs4)cnn23)c1 [Indiplon] | preserved both neurite length and the network integrity (branching) |
| N[C@@H](Cc1ccccc1)C(=O)O [L-Phenylalanine] | preserved both neurite length and the network integrity (branching) |
| O=C(O)[C@H](CC(=O)N1C[C@H]2CCCC[C@H]2C1)Cc1ccccc1 [Mitiglinide] | preserved both neurite length and the network integrity (branching) |
| COc1ccsc1CNCC[C@@]1(c2ccccn2)CCOC2(CCCC2)C1 [Oliceridine] | preserved both neurite length and the network integrity (branching) |
| CNC(=O)c1ccc2cc([C@@]3(O)CCn4cncc43)ccc2c1 [Orteronel] | preserved both neurite length and the network integrity (branching) |
| CN1Cc2cc(Cl)ccc2-n2c(nnc2[C@H]2CC[C@H](Oc3ccccn3)CC2)C1 [RG7314] | preserved both neurite length and the network integrity (branching) |
| O=C(O)CCn1c2c(c3ccccc31)C[C@H](NS(=O)(=O)c1ccc(F)cc1)CC2 [Ramatroban] | preserved both neurite length and the network integrity (branching) |
| CC[C@H](CO)Nc1nc(NCc2ccccc2)c2ncn(C(C)C)c2n1 [Seliciclib] | preserved both neurite length and the network integrity (branching) |
| O=c1sn(-c2cccc3ccccc23)c(=O)n1Cc1ccccc1 [Tideglusib] | preserved both neurite length and the network integrity (branching) |
| NC(=O)c1ccc(N(C(N)=O)c2c(F)cccc2F)nc1-c1ccc(F)cc1F [VX-702] | preserved both neurite length and the network integrity (branching) |
| C[C@@H]1COC(Nc2ccc3ncnc(Nc4ccc(OCc5nccs5)c(Cl)c4)c3c2)=N1 [Varlitinib] | preserved both neurite length and the network integrity (branching) |
| CC(C)(C)S(=O)(=O)N[C@H]1CC[C@H](C(=O)Nc2ccc(C(F)(F)F)cn2)CC1 [Velneperit] | preserved both neurite length and the network integrity (branching) |

System: rat oligodendrocyte progenitor CG4 line
Assay: Differentiation assay on rat oligodendrocyte progenitor CG4 line (HCS, mCherry+)
Type: cell-based
Conditions: secondary screen of 49 selected compounds, 1 μM, 5 days
Source text: Primary validation on CG4 line toxicity and differentiation. An innovative OPC line was developed for fast and reliable high content screening (HCS) of small compounds inducing oligodendrocyte differentiation. The line was genetically engineered by lentiviral transduction of rat CG4 cells (PubMed=1613821; DOI=10.1002/jnr.490310125; Louis J. C., Magal E., Muir D., Manthorpe M., Varon S.; CG-4, a new bipotential glial cell line from rat brain, is capable of differentiating in vitro into either mature oligodendrocytes or type-2 astrocytes. J. Neurosci. Res. 31:193-204(1992) to express mCherry fluorescent reporter (Evercooren, Anne & Avellana-Adalid, V. & Vitry, Sandrine & Nait-Oumesmar, Brahim & Lachapelle, Francois. (1997). Expansion of Oligodendrocyte Progenitors for Myelin Repair. 10.1007/978-1-4615-5949-8_21) in mature oligodendrocytes only, and EGFP at all stage of the oligodendroglial lineage: both the generation of mature oligodendrocytes (wmNl-mCherry) and the morphological changes associated with differentiation (CMV-EGFP) can be therefore monitored in a single assay. mCherry expression occurred only in O4+/GalC+ differentiated oligodendrocytes and GFP was ubiquitously expressed at all developmental stages. The line so obtained was validated using compounds with well-established effects on oligodendrocyte differentiation (cAMP and T3). Cell-based assay was standardized on the HCS platform (ArrayScanXTI, Brain and Spine Institute (Paris), validating the pro-differentiation effects of clemastine^27 and 9cis-retinoic acid.^28 For HCS validation of 274 compounds identified through in silico screen, double-fluo CG4 line cells were plated in 96 well-plates, 6500 cells/cm^2 and left for 24 h in proliferation. The other day, compounds were added (1 μM) for next 5 days of differentiation, with ⅔ medium changed after 3 days. 9-cis Retinoic Acid (9cis-RA; […]) served as a positive control, negative controls were basal (N1) medium and vehicle (basal+0.1% DMSO). Each compound was tested in triplicate and were imaged with ArrayScanXTI system (35 fields/well) after 5 days of differentiation.
FIG. 4 provides a schematic representation of High Content Screening (HCS) validation of the 274 compounds identified through in silico screening using CG4 line. […] In addition, the whole short list of 160 non-toxic compounds were screened using the CG4 high content phenotypic assay to further confirm the data from primary screening and to potentially select additional compounds with pro-myelinating activities. From this screening of the short list, 49 hit compounds were identified that increase differentiation either of CG4 cells or primary OPCs (FIG. 6).

| SMILES | CG4 differentiation compared with 9cis-RA positive control |
| --- | --- |
| COCCOc1cnc2ccn([C@H](C)c3nnc4c(F)cc(-c5cnn(C)c5)cn34)c(=O)c2c1 [AMG-337] | promoting differentiation significantly higher than 9cis-RA positive control |
| CN(C(=O)C(c1ccccc1)c1ccccc1)[C@H](CN1CC[C@H](O)C1)c1ccccc1 [ASIMADOLINE] | promoting differentiation significantly higher than 9cis-RA positive control |
| Cc1ccc(C(=O)NC2CC2)cc1-n1ncc(C(=O)c2cccc(C#N)c2)c1N [Acumapimod] | promoting differentiation significantly higher than 9cis-RA positive control |
| C[N+](C)(C)CCOP(=O)([O-])OC[C@H](O)CO [CHOLINE ALFOSCERATE] | promoting differentiation significantly higher than 9cis-RA positive control |
| Cc1cc(Oc2ccc3nc(COc4ccc(CC5SC(=O)NC5=O)cc4)n(C)c3c2)cc(C)c1N (centres unmarked) [Efatutazone hydrochloride, Efatutazone Hydrochloride] | promoting differentiation significantly higher than 9cis-RA positive control |
| O=c1oc2c(O)c(O)cc3c(=O)oc4c(O)c(O)cc1c4c23 [Ellagic Acid] | promoting differentiation significantly higher than 9cis-RA positive control |
| Cc1cc(Nc2cc(CN3CCOCC3)c3nc(C)c(Cc4ccc(Cl)cc4F)n3n2)n[nH]1 [GANDOTINIB, Gandotinib] | promoting differentiation significantly higher than 9cis-RA positive control |
| O=C1NC(=O)C(c2cnc3ccccn23)=C1c1cn2c3c(cc(F)cc13)CN(C(=O)N1CCCCC1)CC2 [LY-2090314] | promoting differentiation significantly higher than 9cis-RA positive control |
| CCCc1nc(C(F)(F)F)ccc1/C=C/C(=O)N[C@H](C)c1cc(F)c(NS(C)(=O)=O)c(F)c1 [PAC-14028] | promoting differentiation significantly higher than 9cis-RA positive control |
| CNC(=O)c1cc(Oc2ccc(NC(=O)Nc3cc(C(C)(C)C)nn3-c3ccc4ncccc4c3)c(F)c2)ccn1 [REBASTINIB] | promoting differentiation significantly higher than 9cis-RA positive control |
| Cc1cncc(CN2CCC(=C3c4ccc(Cl)cc4CCc4cccnc43)CC2)c1 [Rupatadine] | promoting differentiation significantly higher than 9cis-RA positive control |
| O=C(O)Cn1c2c(c3cc(F)ccc31)CN(C(=O)c1cccc3ccccc13)CC2 [SETIPIPRANT] | promoting differentiation significantly higher than 9cis-RA positive control |
| C[C@]12CCC(=O)C[C@@H]1CC[C@@H]1[C@@H]2CC[C@]2(C)[C@@H](O)CC[C@@H]12 [STANOLONE] | promoting differentiation significantly higher than 9cis-RA positive control |
| CN(C(=O)c1ccc(F)cc1C(F)(F)F)C1CCN(c2nnc(-c3ccnn3C)c3ccccc23)CC1 [Taladegib] | promoting differentiation significantly higher than 9cis-RA positive control |

System: murine cortical neurons (14 DIV)
Assay: NMDA-mediated neuroprotective assay (CCK8 viability)
Type: cell-based, mouse
Conditions: 1 μM, 3 h pre-treatment, NMDA 8 μM 24 h, p<0.05
Method: To assess neuroprotective activity of 160 selected non-toxic compounds on primary murine cortical neurons, obtained as described in the previous paragraph, ([…]), cultures were pre-treated with 1 μM compounds for either 3 or 24 hours, followed by 24 hours chronic stimulation with NMDA (8 μM) to induce neuronal damage. Each test plate included: a negative control (untreated), vehicle-treated control (0.02% vol/vol DMSO), a positive neurotoxic control—staurosporine 0.1 μM, a stressor—NMDA 8 μM, a positive neuroprotective control—NAC 300 μM, and a combination of stressor +neuroprotective molecule (NMDA+NAC). Cell viability was measured with Cell Counting Kit-8 assay compared to NMDA-treated control.
The potential neuroprotective activity of 160 selected non-toxic compounds was evaluated on murine cortical neurons (14 DIV) with either 3 h (FIG. 13) or 24 h compounds pre-treatment (FIG. 14). In assay with 3 h pre-treatment, 17 compounds were identified as potential NMDA-neuroprotective hits (marked with black asterisk in FIG. 13, stat. significant at p<0.05, Kruskal-Wallis test with post-hoc two-stage linear step-up procedure of Benjamini, Krieger and Yekutieli multiple comparison correction).

| SMILES | neuroprotection of viability/metabolic activity against NMDA |
| --- | --- |
| C[C@H](Nc1ncnc2[nH]cnc12)c1cc2ccc(F)cc2nc1-c1ccccn1 [AMG-319] | hit compounds |
| CC(=O)Nc1cccc2c1c(Sc1ccc(Cl)cc1)c(C)n2CC(=O)O [AZD1981] | hit compounds |
